Reference: PMC13129536 (The Journal of Biological Chemistry, 2026)

System: M. tuberculosis Erdman
Assay: Pathogenic (BSL3) tuberculosis CFU assay
Type: cell-based
Settings: Mycobacterium tuberculosis, 96 h; for IC50: read-out: IC50 (CFU/mL at 96 hours); for IC90: read-out: IC90 (CFU/mL at 96 hours)

Cc1ccc(C)c(Nc2nc(NCc3ccccc3)c3ccccc3n2)c1 [Compound F0909-0124]
IC50: ~8.97 µM

C[C@@H](O)[C@H]1C(=O)N2C(C(=O)O)=C(S[C@@H]3CN[C@H](C(=O)N(C)C)C3)[C@H](C)[C@H]12 [Meropenem, meropenem, reference compound]
IC50: 0.697 ± 0.11 µg/mL | IC90: 1.16 ± 0.255 µg/mL

c1ccc(-c2nc3cc(Cc4ccc5[nH]c(-c6ccccn6)nc5c4)ccc3[nH]2)nc1 [Compound F0850-5995]
IC50: ~1.12 µM | IC90: 6.64 ± 3.86 µM
